# Target: T1, TGFβ R1 (Homo sapiens, UniProt P36897)
# T1 sequence (P36897 34-503): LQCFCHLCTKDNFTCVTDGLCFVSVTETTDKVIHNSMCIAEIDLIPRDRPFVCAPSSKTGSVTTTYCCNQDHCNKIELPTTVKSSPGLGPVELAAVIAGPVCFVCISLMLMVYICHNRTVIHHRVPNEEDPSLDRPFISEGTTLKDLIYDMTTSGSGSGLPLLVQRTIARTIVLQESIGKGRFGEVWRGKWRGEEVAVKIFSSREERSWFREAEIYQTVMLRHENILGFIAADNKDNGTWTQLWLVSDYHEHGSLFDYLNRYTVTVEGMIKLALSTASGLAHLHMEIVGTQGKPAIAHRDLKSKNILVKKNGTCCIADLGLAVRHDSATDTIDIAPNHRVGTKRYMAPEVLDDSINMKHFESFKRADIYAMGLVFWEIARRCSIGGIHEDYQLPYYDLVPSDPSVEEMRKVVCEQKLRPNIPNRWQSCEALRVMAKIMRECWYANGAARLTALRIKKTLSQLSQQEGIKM
# Assay: TGFβ R1 autophosphorylation protocol (33P-ATP, phosphocellulose filter plate)
# Assay type: biochemical
# Settings: 10 uM ATP, 170 nM TGFβ R1, room temperature 20 minutes, read-out: IC50 for Kinase Inhibition
# Summary of the method: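 Radiometric autophosphorylation: 170 nM enzyme with compound (≤1% DMSO), 10 uM ATP plus γ-33P-ATP, […] in 20 mM MOPS pH 7, 20 min at room temperature. Reaction stopped on phosphocellulose filter, washed with H3PO4 and ethanol, counted by scintillation.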
row,IC50 [nM],Structure (SMILES)
1,673,"O=C(c1cnccc1Nc1nc(-c2cc(Cl)ccc2F)ncc1C1CCCC1)N1CC[C@H](O)C1 [Compound 212, {4-[2-(5-chloro-2-fluoro-phenyl)-5-cyclopentyl-pyrimidin-4-ylamino]-pyridin-3-yl}(3-hydroxy-pyrrolidin-1-yl)-methanone]"
2,12900,"CN1CCN(C(=O)c2cnccc2Nc2nc(-c3cc(Cl)ccc3F)ncc2C2CCCC2)CC1 [Compound 213, {4-[2-(5-Chloro-2-fluoro-phenyl)-5-cyclopentyl-pyrimidin-4-ylamino]-pyridin-3-yl}-(4-methyl-piperazin-1-yl)-methanone]"
3,283,"CC(C)c1cnc(-c2cc(Cl)ccc2F)nc1Nc1ccncc1C(=O)N1CCC[C@H](O)C1 [Compound 214, {4-[2-(5-Chloro-2-fluoro-phenyl)-5-isopropyl-pyrimidin-4-ylamino]-pyridin-3-yl}-(3-hydroxy-piperidin-1-yl)-methanone]"
4,1210,"CC(C)c1cnc(-c2cc(Cl)ccc2F)nc1Nc1ccncc1C(=O)N1CCC[C@@H](O)C1 [Compound 217, {4-[2-(5-Chloro-2-fluoro-phenyl)-5-isopropyl-pyrimidin-4-ylamino]-pyridin-3-yl}-(3-hydroxy-piperidin-1-yl)-methanone]"
5,1780,"COc1cnc(-c2cc(Cl)ccc2F)nc1Nc1ccncc1C(=O)N1CCC[C@@H](O)C1 [Compound 218, {4-[2-(5-Chloro-2-fluoro-phenyl)-5-methoxy-pyrimidin-4-ylamino]-pyridin-3-yl}-(3-hydroxy-piperidin-1-yl)-methanone]"
6,44,O=C(NCCCn1ccnc1)c1cnccc1Nc1nc(-c2cc(Cl)ccc2F)ncc1C1CCCC1 [Compound 219]
7,249,"COc1cnc(-c2cc(Cl)ccc2F)nc1Nc1ccncc1C(=O)N1CC[C@H](F)C1 [Compound 220, {4-[2-(5-Chloro-2-fluoro-phenyl)-5-methoxy-pyrimidin-4-ylamino]-pyridin-3-yl}-(3-fluoro-pyrrolidin-1-yl)-methanone]"
8,1460,"COc1cnc(-c2cc(Cl)ccc2F)nc1Nc1ccncc1C(=O)N1CCC[C@H](O)C1 [Compound 221, {4-[2-(5-Chloro-2-fluoro-phenyl)-5-methoxy-pyrimidin-4-ylamino]-pyridin-3-yl}-(3-hydroxy-piperidin-1-yl)-methanone]"
9,2470,"O=C(c1cnccc1Nc1nc(-c2cc(Cl)ccc2F)ncc1C1CCCC1)N1CCC[C@H](O)C1 [Compound 226, {4-[2-(5-Chloro-2-fluoro-phenyl)-5-cyclopentyl-pyrimidin-4-ylamino]-pyridin-3-yl}-(3-hydroxy-piperidin-1-yl)-methanone]"
10,330,"O=C(c1cnccc1Nc1nc(-c2cc(Cl)ccc2F)ncc1C1CCCC1)N1CCOCC1 [Compound 227, {4-[2-(5-Chloro-2-fluoro-phenyl)-5-cyclopentyl-pyrimidin-4-ylamino]-pyridin-3-yl}-morpholin-4-yl-methanone]"
11,2780,"CC(C)c1cnc(-c2cc(Cl)ccc2F)nc1Nc1ccncc1C(=O)N1CCN[C@H](C)C1 [Compound 228, {4-[2-(5-Chloro-2-fluoro-phenyl)-5-isopropyl-pyrimidin-4-ylamino]-pyridin-3-yl}-(3-methyl-piperazin-1-yl)-methanone]"
12,19,"CC(C)c1cnc(-c2cc(Cl)ccc2F)nc1Nc1ccncc1C(=O)NC[C@H](C)OC(=O)CN [Compound 229, Amino-acetic acid 2-{[4-[2-(5-chloro-2-fluoro-phenyl)-5-isopropyl-pyrimidin-4-ylamino]-pyridine-3-carbonyl}-amino]-1-methyl-ethyl ester]"
13,1140,"CC(C)c1cnc(-c2cc(Cl)ccc2F)nc1Nc1ccncc1C(=O)N1CCC(O)CC1 [Compound 230, {4-[2-(5-Chloro-2-fluoro-phenyl)-5-isopropyl-pyrimidin-4-ylamino)-pyridin-3-yl}-(4-hydroxy-piperidin-1-yl)-methanone]"
14,1090,"CC(C)c1cnc(-c2cc(Cl)ccc2F)nc1Nc1ccncc1C(=O)N1CCN[C@@H](C(C)C)C1 [Compound 231, {4-[2-(5-Chloro-2-fluoro-phenyl)-5-isopropyl-pyrimidin-4-ylamino]-pyridin-3-yl}-(3-isopropyl-piperazin-1-yl)-methanone]"
15,990,"CC(C)c1cnc(-c2cc(Cl)ccc2F)nc1Nc1ccncc1C(=O)N1CCNCC1 [Compound 232, {4-[2-(5-Chloro-2-fluoro-phenyl)-5-isopropyl-pyrimidin-4-ylamino]-pyridin-3-yl}-piperazin-1-yl-methanone]"
16,178,"CC(C)c1cnc(-c2cc(Cl)ccc2F)nc1Nc1ccncc1C(=O)NC[C@H](C)OP(=O)(O)O [Compound 234, Phosphoric acid mono-[2-{[4-[2-(5-chloro-2-fluoro-phenyl}-5-isopropyl-pyrimidin-4-ylamino]-pyridine-3-carbony}-amino)-1-methyl-ethyl] ester]"
17,123,"CC(C)c1cnc(-c2cc(Cl)ccc2F)nc1Nc1ccncc1C(=O)N[C@@H]1CCC[C@H]1O [Compound 236, 4-[2-(5-Chloro-2-fluoro-phenyl)-5-isopropyl-pyrimidin-4-ylamino]-N-(2-hydroxy-cyclopentyl)-nicotinamide]"
18,63,"COc1cnc(-c2cc(Cl)ccc2F)nc1Nc1ccncc1C(=O)NCCCNS(C)(=O)=O [Compound 237, 4-[2-(5-Chloro-2-fluoro-phenyl)-5-methoxy-pyrimidin-4-ylamino]-N-(3-methanesulfonylamino-propyl)-nicotinamide]"
19,1080,"COc1cnc(-c2cc(Cl)ccc2F)nc1Nc1ccncc1C(=O)NO [Compound 238, 4-[2-(5-Chloro-2-fluoro-phenyl)-5-methoxy-pyrimidine-4-ylamino]-N-hydroxy-nicotinamide]"
20,7740,"COc1cnc(-c2cc(Cl)ccc2F)nc1Nc1ccncc1C(=O)C(=O)N(C)C [Compound 239, 2-{4-[2-(5-Chloro-2-fluoro-phenyl)-5-methoxy-pyrimidin-4-ylamino]-pyridin-3-yl]-N,N-dimethyl-2-oxo-acetamide]"
21,3080,"CCCN(CCC)C(=O)C(=O)c1cnccc1Nc1nc(-c2cc(Cl)ccc2F)ncc1OC [Compound 240, 2-{4-[2-(5-Chloro-2-fluoro-phenyl)-5-methoxy-pyrimidin-4-ylamino]-pyridin-3-yl}-2-oxo-N,N-dipropyl-acetamide]"
22,127,"COc1cnc(-c2cc(Cl)ccc2F)nc1Nc1ccncc1C(=O)N1CC[C@@H](F)C1 [Compound 241, {4-[2-(5-Chloro-2-fluoro-phenyl)-5-methoxy-pyrimidin-4-ylamino]-pyridin-3-yl}-(3-fluoro-pyrrolidin-1-yl)-methanone]"
23,40,"CC(C)c1cnc(-c2cc(Cl)ccc2F)nc1Nc1ccncc1C(=O)N[C@H]1CCC[C@@H]1O [Compound 247, 4-[2-(5-Chloro-2-fluoro-phenyl)-5-isopropyl-pyrimidin-4-ylamino]-N-(2-hydroxy-cyclopentyl)-nicotinamide]"

row,Structure (SMILES),IC50 [nM]
1,"CCOP(=O)(OCC)O[C@@H](C)CNC(=O)c1cnccc1Nc1nc(-c2cc(Cl)ccc2F)ncc1C(C)C [Compound 233, Phosphoric acid 2-{(4-[2-(5-chloro-2-fluoro-phenyl)-5-isopropyl-pyrimidin-4-ylamino]-pyridine-3-carbonyl}-amino)-1-methyl-ethyl ester diethyl ester]",280
